Measured values as given in patent publication US8389730B2, “Compositions and methods for the treatment of disease associated with TRP-P8 expression” (Dendreon Corporation, priority 2003, dated 2013).

How the values were obtained:
Trp-p8 orthologues = conditions: reported by McKemy et al. and Peier et al.; cited from earlier work
Trp-p8 = biological target: T1, Trp-p8 (Homo sapiens, UniProt Q7Z2W7, T58I); test: Cell viability (ATP) assay for Trp-p8 antagonists: protection of CHO/Trp-p8 cells from toxic control agonist D-1607; format: cell-based; conditions: 37° C., ATP level relative to DMSO; for Rel. Viab. (%) at 10 μM: Table 3, Formula VII antagonists, 10 μM compound plus toxic concentration of control agonist, CHO/Trp-p8 cells; for Relative Viability (%) at 10 μM: Table 2, Formula VIII antagonists, 10 μM compound plus toxic concentration of control agonist D-1607, CHO/Trp-p8 cells
T1 construct: expressed in transfected cells
Procedure: FIG. 4 is a graph depicting exemplary results from a primary screen for Trp-p8 antagonists using the ATP viability assay, described herein, with CHO/Trp-p8 cells at 37° C. CHO/Trp-p8 cells were exposed to compounds, at different concentrations, in 1% DMSO or 1% DMSO in combination with a toxic concentration of the Trp-p8 agonist 1607. The viability of cells was measured after 24-26 hours at 37° C. using the ATP assay.
As a primary screen for efficacy and specificity for agonists, both the non-transfected CHO and CHO/Trp-p8 cells were exposed to 10 μM of test compounds in 1% dimethylsulfoxide (DMSO) or 1% DMSO (control) in a 96-well black walled, black-bottomed, cell-culture treated plate. DMSO was the solvent for all of the compounds tested. After 24-26 hours at 37° C., the cells were lysed and ATP concentration determined via a chemiluminescence assay using a commercially available reagent kit—Cell Titer-Glo (Promega; Madison, Wis.). […] (EC50 is defined herein as the agonist concentration at which there is a 50% reduction in cell viability).
Trp-p8 antagonists were identified by employing a cell viability assay with CHO/Trp-p8 cells at 37° C. (see Example 7) with the following modification. Within the context of the present invention, compounds that protect CHO/Trp-p8 cells from the toxic effect of a control agonist thereby maintaining the viability of the CHO/Trp-p8 cell exposed to a Trp-p8 agonist is defined as antagonist. As a primary screen for antagonists, CHO/Trp-p8 cells were exposed to 10 μM of test compounds in 1% dimethylsulfoxide (DMSO) or 1% DMSO plus a toxic concentration of a control agonist, D-1607.

T1 sequence (Q7Z2W7 whole entry T58I): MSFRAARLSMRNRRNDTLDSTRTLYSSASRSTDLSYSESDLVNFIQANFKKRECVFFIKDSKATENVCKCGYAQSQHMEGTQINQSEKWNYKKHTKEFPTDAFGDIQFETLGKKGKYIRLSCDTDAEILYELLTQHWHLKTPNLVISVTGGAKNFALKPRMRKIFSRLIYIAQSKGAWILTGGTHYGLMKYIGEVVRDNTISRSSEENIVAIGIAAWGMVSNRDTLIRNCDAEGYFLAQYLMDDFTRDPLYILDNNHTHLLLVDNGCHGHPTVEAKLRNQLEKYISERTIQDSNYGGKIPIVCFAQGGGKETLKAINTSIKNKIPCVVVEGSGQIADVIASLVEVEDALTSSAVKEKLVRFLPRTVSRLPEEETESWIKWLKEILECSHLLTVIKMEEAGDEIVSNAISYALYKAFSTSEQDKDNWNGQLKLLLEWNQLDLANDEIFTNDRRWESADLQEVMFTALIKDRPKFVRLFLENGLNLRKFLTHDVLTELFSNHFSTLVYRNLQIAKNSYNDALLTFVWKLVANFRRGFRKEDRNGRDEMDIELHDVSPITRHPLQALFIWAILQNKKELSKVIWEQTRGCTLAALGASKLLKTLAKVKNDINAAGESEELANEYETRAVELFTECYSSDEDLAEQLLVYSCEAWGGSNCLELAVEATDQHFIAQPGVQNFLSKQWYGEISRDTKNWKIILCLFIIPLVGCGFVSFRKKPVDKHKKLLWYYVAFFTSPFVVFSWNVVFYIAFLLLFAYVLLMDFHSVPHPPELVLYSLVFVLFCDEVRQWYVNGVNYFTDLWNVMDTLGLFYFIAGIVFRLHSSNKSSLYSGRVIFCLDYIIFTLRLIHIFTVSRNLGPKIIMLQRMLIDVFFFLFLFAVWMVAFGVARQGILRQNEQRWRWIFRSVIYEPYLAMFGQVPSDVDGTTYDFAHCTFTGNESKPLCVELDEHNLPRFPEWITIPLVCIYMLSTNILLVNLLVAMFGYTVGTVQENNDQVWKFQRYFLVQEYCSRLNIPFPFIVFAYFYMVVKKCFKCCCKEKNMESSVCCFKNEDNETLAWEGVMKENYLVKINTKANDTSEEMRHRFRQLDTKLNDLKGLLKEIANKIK

In the case of O=C1NC(c2cccc([N+](=O)[O-])c2)=CCN1c1ccccc1O [Icilin, 1-(2-hydroxyphenyl)-4-(3-nitrophenyl)-1,2,3,6-tetrahydropyrimidine-2-one], the “Effective concentration in inducing calcium influx” value (Trp-p8 orthologues) is given as 0.1 to 1 µM.
In the case of O=C1C(c2ccc(Cl)cc2)N(C2CCCCCC2)C(=O)CN1C1CCCC1 (stereo not shown) [compound 1283], the “Rel. Viab. (%) at 10 μM” value (Trp-p8) is reported as 100%.
For O=C1C(c2ccc(Cl)cc2)N(C2CCCCC2)C(=O)CN1C1CCCC1 (stereo not shown) [compound 1284], the “Rel. Viab. (%) at 10 μM” value (Trp-p8) was 95%.
In the case of Cc1cc(N2CCN(Cc3ccc4c(c3)SCO4)CC2)n2nc(C)c(-c3ccc(Br)cc3)c2n1 [compound 1313], the “Rel. Viab. (%) at 10 μM” value (Trp-p8) is reported as 92%.
With c1ccc(Cc2nc(N3CCN(c4ccccn4)CC3)c3c4c(sc3n2)CCCC4)cc1 [compound 1323] the “Rel. Viab. (%) at 10 μM” value (Trp-p8) was 88%.
In the case of CC(C)[C@@H]1CC[C@@H](C)C[C@H]1OC(=O)N1CCc2ccccc2C1 [compound 1457], the “Relative Viability (%) at 10 μM” value (Trp-p8) is reported as 112%.
For CC(C)[C@@H]1CC[C@@H](C)C[C@H]1OC(=O)N1CCCc2ccccc21 [compound 1465], the “Relative Viability (%) at 10 μM” value (Trp-p8) was 90%.
In the case of CC(C)[C@@H]1CC[C@@H](C)C[C@H]1OC(=O)N1c2ccccc2CC1C (stereo partly shown) [compound 1475], the “Relative Viability (%) at 10 μM” value (Trp-p8) is reported as 100%.
With CC(C)[C@@H]1CC[C@@H](C)C[C@H]1OC(=O)N1CCc2ccccc21 [compound 1504] the “Relative Viability (%) at 10 μM” value (Trp-p8) was 90%.
In the case of CC(C)[C@@H]1CC[C@@H](C)CC1C(=O)N1c2ccccc2CC1C (stereo partly shown) [compound 1588], the “Relative Viability (%) at 10 μM” value (Trp-p8) is reported as 88%.
With CC(NC(=O)CO[C@@H]1C[C@H](C)CC[C@H]1C(C)C)c1ccccc1 (stereo partly shown) [compound 1664] the “Relative Viability (%) at 10 μM” value (Trp-p8) was 107%.
In the case of CC(C)[C@@H]1CC[C@@H](C)C[C@H]1OCC(=O)NCc1ccccc1Cl [compound 1669], the “Relative Viability (%) at 10 μM” value (Trp-p8) is reported as 86%.
With COc1ccccc1CNC(=O)CO[C@@H]1C[C@H](C)CC[C@H]1C(C)C [compound 1673] the “Relative Viability (%) at 10 μM” value (Trp-p8) was 112%.
In the case of CC(C)[C@@H]1CC[C@@H](C)C[C@H]1OCC(=O)N1CCc2ccccc2C1 [compound 1688], the “Relative Viability (%) at 10 μM” value (Trp-p8) is reported as 91%.
In the case of CC(C)[C@@H]1CC[C@@H](C)C[C@H]1OCC(=O)N1c2ccccc2CC1C (stereo partly shown) [compound 1691], the “Relative Viability (%) at 10 μM” value (Trp-p8) is reported as 92%.
With CC(C)[C@@H]1CC[C@@H](C)C[C@H]1OCC(=O)N1CCCc2ccccc21 [compound 1696] the “Relative Viability (%) at 10 μM” value (Trp-p8) was 82%.
In the case of COc1ccccc1NC(=O)CO[C@@H]1C[C@H](C)CC[C@H]1C(C)C [compound 1709], the “Relative Viability (%) at 10 μM” value (Trp-p8) is reported as 95%.
For CC(C)[C@@H]1CC[C@@H](C)C[C@H]1OCC(=O)NCCC1=CCCCC1 [compound 1743], the “Relative Viability (%) at 10 μM” value (Trp-p8) was 97%.
For CC(C)[C@@H]1CC[C@@H](C)C[C@H]1OCC(=O)NCC1(c2ccccc2)CCCC1 [compound 1745], the “Relative Viability (%) at 10 μM” value (Trp-p8) was 88%.
For CC(C)[C@@H]1CC[C@@H](C)C[C@H]1NC(=O)N1c2ccccc2CC1C (stereo partly shown) [compound 1781], the “Relative Viability (%) at 10 μM” value (Trp-p8) was 91%.
With CC(C)[C@@H]1CC[C@@H](C)C[C@H]1NC(=O)NCCN1CCCc2ccccc21 [compound 1815] the “Relative Viability (%) at 10 μM” value (Trp-p8) was 87%.
For CC(C)[C@@H]1CC[C@@H](C)C[C@H]1NC(=O)N1CCc2ccccc2C1 [compound 1819], the “Relative Viability (%) at 10 μM” value (Trp-p8) was 86%.
In the case of CCCC1c2cccn2CCC1C(=O)N[C@@H]1C[C@H](C)CC[C@H]1C(C)C (stereo partly shown) [compound 1838], the “Relative Viability (%) at 10 μM” value (Trp-p8) is reported as 88%.
With CC(C)[C@@H]1CC[C@@H](C)C[C@H]1NC(=O)NC1CCCCCC1 [compound 1876] the “Relative Viability (%) at 10 μM” value (Trp-p8) was 86%.
For CC(C)[C@@H]1CC[C@@H](C)C[C@H]1NC(=O)NCCCSC1CCCCC1 [compound 1882], the “Relative Viability (%) at 10 μM” value (Trp-p8) was 85%.
In the case of CC(C)[C@@H]1CC[C@@H](C)C[C@H]1NC(=O)NCCC1=CCCCC1 [compound 1883], the “Relative Viability (%) at 10 μM” value (Trp-p8) is reported as 84%.
With CC(C)[C@@H]1CC[C@@H](C)C[C@H]1NC(=O)NCCN(Cc1ccccc1)C(C)C [compound 1885] the “Relative Viability (%) at 10 μM” value (Trp-p8) was 97%.
With CC(C)[C@@H]1CC[C@@H](C)C[C@H]1OCC(=O)N1CCn2cccc2C1C (stereo partly shown) [compound 1918] the “Relative Viability (%) at 10 μM” value (Trp-p8) was 94%.
In the case of CC(C)CN(CCNC(=O)CO[C@@H]1C[C@H](C)CC[C@H]1C(C)C)CC(C)C [compound 1920], the “Relative Viability (%) at 10 μM” value (Trp-p8) is reported as 81%.
For Cc1ccccc1CCNC(=O)CO[C@@H]1C[C@H](C)CC[C@H]1C(C)C [compound 1923], the “Relative Viability (%) at 10 μM” value (Trp-p8) was 116%.
In the case of CC(C)[C@@H]1CC[C@@H](C)C[C@H]1OCC(=O)NCCc1cccs1 [compound 1925], the “Relative Viability (%) at 10 μM” value (Trp-p8) is reported as 94%.
In the case of CCN(CCNC(=O)CO[C@@H]1C[C@H](C)CC[C@H]1C(C)C)c1cccc(C)c1 [compound 1937], the “Relative Viability (%) at 10 μM” value (Trp-p8) is reported as 101%.
For CC(C)[C@@H]1CC[C@@H](C)C[C@H]1OC(=O)N1CCn2cccc2C1C (stereo partly shown) [compound 1940], the “Relative Viability (%) at 10 μM” value (Trp-p8) was 110%.
With CCCC1c2cccn2CCN1C(=O)O[C@@H]1C[C@H](C)CC[C@H]1C(C)C (stereo partly shown) [compound 1941] the “Relative Viability (%) at 10 μM” value (Trp-p8) was 98%.
With CC(C)[C@@H]1CC[C@@H](C)C[C@H]1NC(=O)CCC1CCCC1 [compound 1996] the “Relative Viability (%) at 10 μM” value (Trp-p8) was 89%.
For CC(C)[C@@H]1CC[C@@H](C)C[C@H]1NC(=O)[C@@H]1C[C@H]1c1ccccc1 [compound 2013], the “Relative Viability (%) at 10 μM” value (Trp-p8) was 95%.
For CC(Oc1ccccc1)C(=O)N[C@@H]1C[C@H](C)CC[C@H]1C(C)C (stereo partly shown) [compound 2018], the “Relative Viability (%) at 10 μM” value (Trp-p8) was 103%.
In the case of CCCCOc1ccc(C(=O)N[C@@H]2C[C@H](C)CC[C@H]2C(C)C)cc1 [compound 2044], the “Relative Viability (%) at 10 μM” value (Trp-p8) is reported as 94%.
With CC(C)[C@@H]1CC[C@@H](C)C[C@H]1NC(=O)COc1ccccc1[N+](=O)[O-] [compound 2045] the “Relative Viability (%) at 10 μM” value (Trp-p8) was 191%.
In the case of CC(C)[C@@H]1CC[C@@H](C)C[C@H]1NC(=O)[C@@]12CC[C@@](C)(C(=O)O1)C2(C)C [compound 2046], the “Relative Viability (%) at 10 μM” value (Trp-p8) is reported as 89%.
In the case of CCCc1c(C(=O)N[C@@H]2C[C@H](C)CC[C@H]2C(C)C)cnn1-c1ccccc1 [compound 2067], the “Relative Viability (%) at 10 μM” value (Trp-p8) is reported as 105%.
For CC(C)[C@@H]1CC[C@@H](C)C[C@H]1NS(=O)(=O)c1c(Cl)cc(Cl)cc1Cl [compound 2131], the “Relative Viability (%) at 10 μM” value (Trp-p8) was 59%.
With CC(C)[C@@H]1CC[C@@H](C)C[C@H]1NS(=O)(=O)c1cc(Br)c(Br)s1 [compound 2134] the “Relative Viability (%) at 10 μM” value (Trp-p8) was 63%.
With CC(C)[C@@H]1CC[C@@H](C)C[C@H]1NC(=O)SCc1ccccc1 [compound 2291] the “Relative Viability (%) at 10 μM” value (Trp-p8) was 87%.
With CC(C)[C@@H]1CC[C@@H](C)C[C@H]1NC(=O)SCc1ccccc1Cl [compound 2306] the “Relative Viability (%) at 10 μM” value (Trp-p8) was 92%.
For CC1CCC(C(C)C)C(OCC(O)CN2CCN(Cc3ccc(Cl)cc3)CC2)C1 (stereo not shown) [compound 2496], the “Rel. Viab. (%) at 10 μM” value (Trp-p8) was 82%.
For Cc1ccnc(N(Cc2ccccc2)C(=O)[C@@H]2C[C@H](C)CC[C@H]2C(C)C)c1 [compound 2639], the “Relative Viability (%) at 10 μM” value (Trp-p8) was 102%.
In the case of COc1ccc(C2c3[nH]c4ccccc4c3CCN2C(=O)[C@@H]2C[C@H](C)CC[C@H]2C(C)C)cc1CN1CCc2cc(OC)c(OC)cc2C1C (stereo partly shown) [compound 2676], the “Relative Viability (%) at 10 μM” value (Trp-p8) is reported as 83%.
For Cc1ccc(O)c(CN[C@@H]2C[C@H](C)CC[C@H]2C(C)C)c1 [compound 2710], the “Relative Viability (%) at 10 μM” value (Trp-p8) was 70%.
For CC(C)[C@@H]1CC[C@@H](C)C[C@H]1NCc1c[nH]nc1-c1ccccc1 [compound 2745], the “Relative Viability (%) at 10 μM” value (Trp-p8) was 62%.
In the case of CC(C)[C@@H]1CC[C@@H](C)C[C@H]1NCc1c[nH]nc1-c1ccc(F)cc1 [compound 2752], the “Relative Viability (%) at 10 μM” value (Trp-p8) is reported as 65%.
For CCc1ccc(-c2n[nH]cc2CN[C@@H]2C[C@H](C)CC[C@H]2C(C)C)cc1 [compound 2754], the “Relative Viability (%) at 10 μM” value (Trp-p8) was 74%.
For CCCCOc1ccc(-c2n[nH]cc2CN[C@@H]2C[C@H](C)CC[C@H]2C(C)C)cc1 [compound 2777], the “Relative Viability (%) at 10 μM” value (Trp-p8) was 83%.
In the case of CC(C)[C@@H]1CC[C@@H](C)C[C@H]1C(=O)Nc1ccc(S(=O)(=O)N2CCCCCC2)cc1 [compound 2865], the “Relative Viability (%) at 10 μM” value (Trp-p8) is reported as 91%.
In the case of CC(C)[C@@H]1CC[C@@H](C)C[C@H]1C(=O)Nc1nnc(Sc2ccnc3cc(Cl)ccc23)s1 [compound 3026], the “Relative Viability (%) at 10 μM” value (Trp-p8) is reported as 86%.
